Results reported in patent US20240384268A1, “Oligonucleotides” (Hudson Institute of Medical Research, priority 2021, published 2024).
In the oligonucleotide strings, read from the 5' end, every base follows the letter of its sugar. An asterisk marks phosphorothioate; unmarked linkages are phosphodiester. Other units and linkages are bracketed, terminal groups are in braces. A string of capitals states the bases alone. e = 2'-O-(2-methoxyethyl) (MOE); d = 2'-deoxy (DNA); m = 2'-O-methyl

Biological target: T1, human TLR7 (Homo sapiens, UniProt Q9NYK1)
T1 construct: HA; host or cells: 293XL-hTLR7-HA (HEK293)
T1 sequence (Q9NYK1 27-1049): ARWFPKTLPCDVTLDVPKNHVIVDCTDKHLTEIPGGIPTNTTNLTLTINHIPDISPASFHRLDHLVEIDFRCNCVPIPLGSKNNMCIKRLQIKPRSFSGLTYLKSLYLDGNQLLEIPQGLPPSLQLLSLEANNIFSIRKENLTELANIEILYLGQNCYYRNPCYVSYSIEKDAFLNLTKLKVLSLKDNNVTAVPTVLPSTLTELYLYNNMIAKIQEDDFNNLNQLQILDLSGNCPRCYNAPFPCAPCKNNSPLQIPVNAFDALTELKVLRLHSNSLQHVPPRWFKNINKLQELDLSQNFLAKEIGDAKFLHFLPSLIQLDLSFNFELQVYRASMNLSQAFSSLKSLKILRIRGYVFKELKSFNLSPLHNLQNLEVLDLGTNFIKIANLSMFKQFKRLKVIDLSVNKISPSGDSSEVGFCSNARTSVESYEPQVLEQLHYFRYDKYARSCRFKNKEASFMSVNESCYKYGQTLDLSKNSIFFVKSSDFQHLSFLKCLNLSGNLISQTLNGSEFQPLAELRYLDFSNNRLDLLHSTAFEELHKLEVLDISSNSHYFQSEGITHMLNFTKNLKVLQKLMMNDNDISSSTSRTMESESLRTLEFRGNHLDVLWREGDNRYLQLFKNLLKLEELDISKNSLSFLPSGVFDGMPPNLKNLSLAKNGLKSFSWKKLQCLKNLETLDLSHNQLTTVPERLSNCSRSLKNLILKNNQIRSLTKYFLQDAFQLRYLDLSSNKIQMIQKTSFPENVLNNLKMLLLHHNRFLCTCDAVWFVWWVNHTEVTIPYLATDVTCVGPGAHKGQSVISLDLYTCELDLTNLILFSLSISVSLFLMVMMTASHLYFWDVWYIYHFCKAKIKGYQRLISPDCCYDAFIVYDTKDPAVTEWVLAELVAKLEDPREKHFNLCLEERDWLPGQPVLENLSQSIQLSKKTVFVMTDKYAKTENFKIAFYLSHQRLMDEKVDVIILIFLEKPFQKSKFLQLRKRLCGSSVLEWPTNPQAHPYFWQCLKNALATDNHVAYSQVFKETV
Test: HEK-TLR7 NF-κB-luciferase reporter, R848 stimulation
Type: cell-based
Conditions: HEK-TLR7; 400 nM 5-nt 2′OMe oligo 6 h before R848 1 μg/ml
Description: In such examples, inhibition of TLR7 activity can be identified by observation of an overall decreased TLR7 response of the cell population, or a lower proportion of cells having TLR7-positive activity as compared to positive control condition in which cells are treated with TLR7 agonist in the absence of the oligonucleotide (or in the presence of an appropriate control inhibitory agent). In one example, 293XLhTLR7 (referred to as HEK-TLR7) cells are transfected with pNF-κB-Luc4 reporter, incubated with an oligonucleotide, and then stimulated with R848. TLR7 activity can be determined by a luciferase assay, which measures activated NF-κB by luminescence. TLR7 activity can also be analysed by measuring cytokine levels, for example by ELISA. […] TLR7 activity may then be assessed by the gene or protein expression of TLR7-responsive genes, such as Tnfα and Oas3.
(§1) For cGAS stimulations, cells were treated for indicated duration with ASOs, prior to transfection with ISD70 (human cells) or ISD45 (mouse cells) (the ASOs were not washed off prior to ISD transfection unless otherwise indicated). The cGAS ligands ISD45 (Stetson and Medzhitov, 2006) and ISD70 (also known as VACV-70 (Unterholzner et al., 2010)) (Table 1) were resuspended as follows: 5 1d of sense and 5 μl of antisense strands at 10 μg/μl were added to 90 μl PBS under sterile conditions, heated at 75° C. for 30 min, prior to letting cool down at room temperature and aliquoting (stock at 1 μg/1 l). The ISDs were transfected at a concentration of […] at a ratio of 1 μg:1 μl with Lipofectamine 2000 in Opti-MEM (Thermo Fisher Scientific). HEK-TLR3, HEK-TLR7 and […] were treated with indicated concentration of ASOs for 20-50 min, prior to stimulation with poly(I:C) (Invivogen), R848 (Invivogen), Motolimod (MedChemExpress) and the Class B CpG oligonucleotides ODN 2006 (synthesised by IDT and resuspended in RNase-free TE buffer [Table 1]), respectively. The TLR2/1 agonist PAM3CSK4 (Invivogen), the TLR4 agonist lipopolysaccharide (Invivogen), the Class B CpG oligonucleotides ODN 1826 (synthesised by IDT and resuspended in RNase-free TE buffer), the mouse Sting agonist DMXAA (Cayman) and the human STING agonist (compound #3 from (Raanjulu et al., 2018), referred to as GSK herein—kind gift from Cancer Therapeutics CRC, Australia) were used at indicated concentrations. Aspirin (Sigma—A2093) was resuspended in pure medium to 10 mM, filter sterilised and added to the cells at 2 mM final. All ASOs were synthesised by Integrated DNA Technologies (IDT), and resuspended in RNase-free TE buffer, pH 8.0 (Thermo Fisher Scientific). Cell viability was assessed by adding 1× fresh resazurin solution to the wells (10λ solution made up with 7 mg resazurin [Sigma—R7017] dissolved in 3.5 ml PBS, sterile filtered at […]) for 4 h, prior to reading at with a Fluostar OPTIMA (BMG LABTECH) plate-reader (fluorescence: Excitation 535 nm, Emission 590); wells with medium only and 1× resazurin were used as blanks.
Following transfection, the cells were collected from the 6-wells and aliquoted into 96-wells, just before ASO and overnight TLR stimulation (as above described). Similarly, the LL171 cells expressing and ISRE-Luc reporter were treated overnight.

| Substance | inhibition of R848 sensing by TLR7, 6 h pre-treatment (in words) |
| --- | --- |
| mC*mG*mU*mU*mU [ShortMut1v3] | failed to do so |
| mG*mG*mU*mA*mU [ShortMut1] | sufficient to inhibit R848 sensing |

Same assay, conditions: HEK-TLR7; 100-500 nM oligo 20-50 min before R848 1 μg/ml

| Substance | inhibition of R848 sensing by TLR7, short pre-treatment (in words) |
| --- | --- |
| /52MOErT/*/i2MOErG/*/i2MOErT/*/i2MOErC/*/i2MOErC/*T*T*G*C*A*C*G*T*G*C*/i2MOErC/*/i2MOErT/*/i2MOErA/*/i2MOErA/*/32MOErG/ (TGTCCTTGCACGTGCCTAAG; sugars from the 5' end e5 d10 e5, all phosphorothioate, methylation of C not given here) [F5-Mut] | significantly less inhibitory |
| mG*mG*mU*mA*mU [ShortMut1] | no inhibition was observed |

Biological target: T2, human TLR9 (Homo sapiens, UniProt Q9NR96)
T2 construct: HA; host or cells: 293XL-hTLR9-HA (HEK293)
T2 sequence (Q9NR96 26-1032): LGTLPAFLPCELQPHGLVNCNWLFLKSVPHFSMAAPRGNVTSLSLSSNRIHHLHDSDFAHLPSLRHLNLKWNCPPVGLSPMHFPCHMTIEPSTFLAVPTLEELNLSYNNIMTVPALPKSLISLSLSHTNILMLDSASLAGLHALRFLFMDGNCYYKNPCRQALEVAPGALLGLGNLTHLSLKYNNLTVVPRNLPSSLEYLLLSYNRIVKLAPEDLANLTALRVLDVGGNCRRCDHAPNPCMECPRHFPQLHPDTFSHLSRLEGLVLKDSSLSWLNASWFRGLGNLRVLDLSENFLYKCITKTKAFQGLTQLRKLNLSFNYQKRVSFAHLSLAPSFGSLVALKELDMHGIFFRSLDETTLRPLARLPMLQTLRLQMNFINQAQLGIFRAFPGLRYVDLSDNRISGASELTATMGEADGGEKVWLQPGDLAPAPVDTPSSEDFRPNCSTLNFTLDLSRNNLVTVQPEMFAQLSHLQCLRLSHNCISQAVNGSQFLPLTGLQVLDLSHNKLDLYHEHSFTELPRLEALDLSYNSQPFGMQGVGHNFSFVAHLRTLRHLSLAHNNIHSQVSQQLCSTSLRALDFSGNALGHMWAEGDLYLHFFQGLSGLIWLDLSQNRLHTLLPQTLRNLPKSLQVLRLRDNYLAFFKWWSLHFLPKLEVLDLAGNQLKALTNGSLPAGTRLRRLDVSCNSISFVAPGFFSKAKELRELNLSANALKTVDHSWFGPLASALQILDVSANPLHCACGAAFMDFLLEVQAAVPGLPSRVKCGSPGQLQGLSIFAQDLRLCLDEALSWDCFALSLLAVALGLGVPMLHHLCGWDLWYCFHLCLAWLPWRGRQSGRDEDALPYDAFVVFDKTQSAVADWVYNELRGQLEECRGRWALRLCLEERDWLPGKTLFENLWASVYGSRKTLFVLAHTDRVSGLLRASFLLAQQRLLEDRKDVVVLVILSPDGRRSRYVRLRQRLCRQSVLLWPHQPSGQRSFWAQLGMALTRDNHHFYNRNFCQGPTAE
Test: HEK-TLR9 NF-κB-luciferase reporter, ODN2006 stimulation
Type: cell-based
Conditions: HEK-TLR9; 500 nM 2′OMe or PS oligos; 200 nM ODN2006
Description: In such examples, inhibition of TLR9 activity can be identified by observation of an overall decreased TLR9 response of the cell population, or a lower proportion of cells having TLR9-positive activity as compared to positive control condition in which cells are treated with TLR9 agonist in the absence of the oligonucleotide (or in the presence of an appropriate control inhibitory agent). In one example, HEK cells are transfected with TLR9 and a NF-κB reporter and incubated with an oligonucleotide and then stimulated with a TLR9 agonist. TLR9 activity can then be determined by a luciferase assay. TLR9 activity can also be analysed by measuring cytokine levels (e.g., IFN, IL-6, TNF and IL-12), for example by ELISA.
as §1
Following transfection, the cells were collected from the 6-wells and aliquoted into 96-wells, just before ASO and overnight TLR stimulation (as above described). Similarly, the LL171 cells expressing and ISRE-Luc reporter were treated overnight. The next day, the cells were lysed in 40 μl (for a 96-well plate) of 1× Glo Lysis buffer (Promega) for 10 min at room temperature. […] was then subjected to firefly luciferase assay using 40 μl of Luciferase Assay Reagent (Promega). Luminescence was quantified with a Fluostar OPTIMA (BMG LABTECH) luminometer.

| Substance | inhibition of TLR9 sensing of ODN2006 (in words) |
| --- | --- |
| mA*mC*mU*mU*mC*G*T*G*G*G*G*T*C*C*T*mU*mU*mU*mC*mA (ACUUCGTGGGGTCCTUUUCA; antisense; sugars from the 5' end m5 d10 m5, all phosphorothioate, methylation of C not given here) [[HPRT]661] | significantly limited inhibition |
| mC*mA*mA*mC*mA*C*T*T*C*G*T*G*G*G*G*mU*mC*mC*mU*mU (CAACACTTCGTGGGGUCCUU; antisense; sugars from the 5' end m5 d10 m5, all phosphorothioate, methylation of C not given here) [[HPRT]665] | only poorly inhibitory |
| mC*mA*mC*mU*mU*C*G*T*G*G*G*G*T*C*C*mU*mU*mU*mU*mC (CACUUCGTGGGGTCCUUUUC; antisense; sugars from the 5' end m5 d10 m5, all phosphorothioate, methylation of C not given here) [[HPRT]662] | strongest inhibition of this series of ASOs |
| mC*mA*mU*mU*mA*G*G*T*G*C*A*G*A*A*A*mU*mC*mU*mU*mC (mC*mA*mU*mU*mA*dG*dG*dT*dG*dC*dA*dG*dA*dA*dA*mU*mC*mU*mU*mC) [ASO8] | significantly inhibited TLR9 sensing of ODN2006 |
| mC*mC*mA*mA*mC*A*C*T*T*C*G*T*G*G*G*mG*mU*mC*mC*mU (CCAACACTTCGTGGGGUCCU; antisense; sugars from the 5' end m5 d10 m5, all phosphorothioate, methylation of C not given here) [[HPRT]666] | strongly inhibited TLR9 |
| mG*mC*mG*mG*mU*A*T*C*C*A*T*A*G*T*C*mU*mC*mC*mA*mU (mG*mC*mG*mG*mU*dA*dT*dC*dC*dA*dT*dA*dG*dT*dC*mU*mC*mC*mA*mU; antisense) [C2-ASO2-A] | significantly better inhibitors of TLR9 than their parent ASO |
| mG*mG*mA*mG*mC*T*T*C*G*A*G*G*C*C*C*mC*mA*mG*mG*mC (mG*mG*mA*mG*mC*dT*dT*dC*dG*dA*dG*dG*dC*dC*dC*mC*mA*mG*mG*mC; antisense) [ASO6] | significantly inhibited TLR9 sensing of ODN2006 |
| mG*mG*mU*mG*mG*T*C*C*A*C*A*A*C*C*C*mC*mU*mU*mU*mC (mG*mG*mU*mG*mG*dT*dC*dC*dA*dC*dA*dA*dC*dC*dC*mC*mU*mU*mU*mC; antisense) [ASO7] | significantly inhibited TLR9 sensing of ODN2006 |
| mU*mC*mC*mG*mG*G*T*C*G*T*A*G*T*T*G*mC*mU*mU*mC*mC (UCCGGGTCGTAGTTGCUUCC; antisense; sugars from the 5' end m5 d10 m5, all phosphorothioate, methylation of C not given here) [ASO11Mut2] | conferred significant TLR9 inhibition |
